Data published in PMC3344384 (Chemistry & biology, 2011).

What was measured:
USP5 = biological target: T1, USP5 (Homo sapiens, UniProt P45974); assay: K63-linked diubiquitin cleavage assay, USP5; conditions: K63-linked diubiquitin substrate; NI = no significant inhibition at 114 μM
T1 sequence (P45974 1-858): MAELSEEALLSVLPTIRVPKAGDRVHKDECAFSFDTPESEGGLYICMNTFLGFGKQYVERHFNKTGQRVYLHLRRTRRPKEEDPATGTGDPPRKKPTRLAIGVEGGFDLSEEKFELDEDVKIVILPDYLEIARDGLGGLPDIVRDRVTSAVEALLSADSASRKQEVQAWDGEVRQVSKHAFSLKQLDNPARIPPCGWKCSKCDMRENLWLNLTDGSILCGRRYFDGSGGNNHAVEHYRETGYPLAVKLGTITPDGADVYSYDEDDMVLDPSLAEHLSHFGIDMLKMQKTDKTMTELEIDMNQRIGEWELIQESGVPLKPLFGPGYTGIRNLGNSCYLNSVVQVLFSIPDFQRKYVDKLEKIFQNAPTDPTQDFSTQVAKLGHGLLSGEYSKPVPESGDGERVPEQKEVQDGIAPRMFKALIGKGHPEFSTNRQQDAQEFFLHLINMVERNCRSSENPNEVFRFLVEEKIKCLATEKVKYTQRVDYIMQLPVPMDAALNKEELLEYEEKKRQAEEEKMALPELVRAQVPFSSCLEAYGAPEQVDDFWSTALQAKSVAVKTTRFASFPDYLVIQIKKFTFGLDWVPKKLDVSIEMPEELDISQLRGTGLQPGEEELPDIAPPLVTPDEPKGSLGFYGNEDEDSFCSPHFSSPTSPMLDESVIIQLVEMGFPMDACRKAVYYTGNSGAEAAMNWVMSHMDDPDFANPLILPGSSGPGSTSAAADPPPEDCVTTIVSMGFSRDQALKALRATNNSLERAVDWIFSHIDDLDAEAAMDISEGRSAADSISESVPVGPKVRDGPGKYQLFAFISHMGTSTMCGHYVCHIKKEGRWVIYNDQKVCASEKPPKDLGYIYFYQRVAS

caspase-6 = biological target: T2, caspase-6 (Homo sapiens, UniProt P55212); assay: cysteine protease selectivity, caspase-6; assay type: biochemical
T2 sequence (P55212 24-179 limits assumed): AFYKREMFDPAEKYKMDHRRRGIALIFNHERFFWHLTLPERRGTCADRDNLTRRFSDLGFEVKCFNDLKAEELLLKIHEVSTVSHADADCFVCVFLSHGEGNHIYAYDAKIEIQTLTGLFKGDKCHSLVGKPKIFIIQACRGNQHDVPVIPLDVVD
T2 sequence (P55212 194-293 limits assumed): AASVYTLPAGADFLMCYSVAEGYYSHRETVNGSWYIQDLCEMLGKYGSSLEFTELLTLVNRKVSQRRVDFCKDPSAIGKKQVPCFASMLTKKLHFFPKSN

USP46/UAF1 = USP46/UAF1 (Homo sapiens, UniProt P62068); assay: K63-linked diubiquitin cleavage assay, USP46/UAF1; assay type: biochemical; conditions: for IC50 USP46/UAF1: K63-linked diubiquitin substrate, NI = no significant inhibition at 114 μM
USP2 = biological target: T3, USP2 (Homo sapiens, UniProt O75604); assay: K63-linked diubiquitin cleavage assay, USP2; conditions: for IC50 USP2: NI = no significant inhibition at 114 μM
T3 sequence (O75604 1-605): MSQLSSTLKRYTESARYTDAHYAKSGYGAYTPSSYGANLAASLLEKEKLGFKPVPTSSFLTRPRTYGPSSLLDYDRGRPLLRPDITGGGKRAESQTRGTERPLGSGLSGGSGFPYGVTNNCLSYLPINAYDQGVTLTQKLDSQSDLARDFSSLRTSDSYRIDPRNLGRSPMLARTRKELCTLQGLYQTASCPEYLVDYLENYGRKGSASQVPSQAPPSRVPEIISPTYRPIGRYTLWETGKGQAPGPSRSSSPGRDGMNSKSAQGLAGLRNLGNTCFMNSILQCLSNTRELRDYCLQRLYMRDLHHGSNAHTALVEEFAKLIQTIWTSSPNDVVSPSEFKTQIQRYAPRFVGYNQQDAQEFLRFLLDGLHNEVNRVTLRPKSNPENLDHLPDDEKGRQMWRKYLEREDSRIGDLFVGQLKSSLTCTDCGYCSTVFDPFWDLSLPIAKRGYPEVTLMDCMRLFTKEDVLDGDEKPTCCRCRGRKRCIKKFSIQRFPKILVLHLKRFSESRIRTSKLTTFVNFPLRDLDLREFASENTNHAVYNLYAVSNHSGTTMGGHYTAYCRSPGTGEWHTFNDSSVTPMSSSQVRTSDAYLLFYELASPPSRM

USP8 = biological target: T4, USP8 (Homo sapiens, UniProt P40818); assay: K63-linked diubiquitin cleavage assay, USP8; conditions: for IC50 USP8: K63-linked diubiquitin substrate, NI = no significant inhibition at 114 μM
T4 sequence (P40818 1-1118): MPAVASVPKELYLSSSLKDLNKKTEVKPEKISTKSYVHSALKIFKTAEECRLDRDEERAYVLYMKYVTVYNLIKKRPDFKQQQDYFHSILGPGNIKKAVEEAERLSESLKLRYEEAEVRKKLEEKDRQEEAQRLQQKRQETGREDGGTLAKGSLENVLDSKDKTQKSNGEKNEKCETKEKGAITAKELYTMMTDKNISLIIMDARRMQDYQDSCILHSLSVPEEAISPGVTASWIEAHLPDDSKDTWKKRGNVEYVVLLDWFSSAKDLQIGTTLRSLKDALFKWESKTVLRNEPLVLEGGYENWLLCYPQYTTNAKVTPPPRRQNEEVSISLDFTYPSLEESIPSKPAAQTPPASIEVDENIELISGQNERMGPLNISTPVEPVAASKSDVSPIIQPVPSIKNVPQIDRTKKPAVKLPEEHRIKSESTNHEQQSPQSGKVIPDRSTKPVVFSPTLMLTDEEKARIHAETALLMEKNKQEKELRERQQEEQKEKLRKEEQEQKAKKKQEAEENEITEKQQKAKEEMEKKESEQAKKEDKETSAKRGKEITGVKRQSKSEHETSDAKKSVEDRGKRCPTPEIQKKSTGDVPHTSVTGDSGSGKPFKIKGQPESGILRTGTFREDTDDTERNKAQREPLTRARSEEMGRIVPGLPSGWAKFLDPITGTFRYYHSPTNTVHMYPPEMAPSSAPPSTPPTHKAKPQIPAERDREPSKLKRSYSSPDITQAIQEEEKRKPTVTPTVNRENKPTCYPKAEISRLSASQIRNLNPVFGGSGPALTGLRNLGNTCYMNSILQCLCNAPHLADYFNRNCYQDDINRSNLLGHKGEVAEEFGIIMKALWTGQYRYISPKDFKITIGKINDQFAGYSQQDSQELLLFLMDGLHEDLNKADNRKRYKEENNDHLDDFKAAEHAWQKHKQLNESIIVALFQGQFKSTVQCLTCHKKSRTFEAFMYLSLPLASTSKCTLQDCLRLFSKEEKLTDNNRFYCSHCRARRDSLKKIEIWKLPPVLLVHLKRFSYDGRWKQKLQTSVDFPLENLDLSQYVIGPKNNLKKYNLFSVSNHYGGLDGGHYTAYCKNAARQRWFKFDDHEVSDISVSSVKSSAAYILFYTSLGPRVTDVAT

[1] = K63-linked diubiquitin substrate

USP46/UAF1, sequence (P62068 whole entry): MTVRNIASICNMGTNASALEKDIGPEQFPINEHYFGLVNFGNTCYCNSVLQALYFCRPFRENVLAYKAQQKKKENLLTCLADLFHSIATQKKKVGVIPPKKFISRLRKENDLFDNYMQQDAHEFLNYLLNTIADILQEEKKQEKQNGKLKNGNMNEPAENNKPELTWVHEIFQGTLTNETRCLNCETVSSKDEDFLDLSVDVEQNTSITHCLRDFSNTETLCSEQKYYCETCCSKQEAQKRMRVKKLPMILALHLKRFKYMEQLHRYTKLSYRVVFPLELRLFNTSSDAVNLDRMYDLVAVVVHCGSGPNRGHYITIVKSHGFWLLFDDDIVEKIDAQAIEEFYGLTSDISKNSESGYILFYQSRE
USP46/UAF1, sequence (Q8TAF3 whole entry partner): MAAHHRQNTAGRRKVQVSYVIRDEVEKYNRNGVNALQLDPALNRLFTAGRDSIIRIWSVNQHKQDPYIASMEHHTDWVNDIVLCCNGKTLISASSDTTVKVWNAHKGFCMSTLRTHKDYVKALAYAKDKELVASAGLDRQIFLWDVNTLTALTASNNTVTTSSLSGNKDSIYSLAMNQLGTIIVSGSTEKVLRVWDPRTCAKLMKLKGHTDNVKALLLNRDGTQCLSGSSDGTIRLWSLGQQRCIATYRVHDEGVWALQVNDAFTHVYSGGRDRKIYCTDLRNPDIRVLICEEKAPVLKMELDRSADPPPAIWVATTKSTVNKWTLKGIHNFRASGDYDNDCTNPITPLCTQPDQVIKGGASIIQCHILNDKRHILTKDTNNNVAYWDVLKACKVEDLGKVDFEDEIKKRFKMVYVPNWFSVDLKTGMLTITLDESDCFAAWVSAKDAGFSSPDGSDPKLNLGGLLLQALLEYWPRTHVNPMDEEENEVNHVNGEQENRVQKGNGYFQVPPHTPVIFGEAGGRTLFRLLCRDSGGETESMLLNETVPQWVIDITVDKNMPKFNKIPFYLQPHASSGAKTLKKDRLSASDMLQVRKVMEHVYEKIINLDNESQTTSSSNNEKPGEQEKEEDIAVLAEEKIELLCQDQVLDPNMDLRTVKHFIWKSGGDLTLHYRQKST

CN1CCN(CCCN2c3ccccc3Sc3ccc(C(F)(F)F)cc32)CC1 [Trifluoperazine, trifluoperazine]
IC50 USP5 (USP5): no inhibition | IC50 (caspase-6): > 250 µM | IC50 USP46/UAF1 (USP46/UAF1): did not inhibit | IC50 USP2 (USP2; [1]): no inhibition

CC(C)(Sc1ccc(CCN(CCCCC2CCCCC2)C(=O)NC2CCCCC2)cc1)C(=O)O [GW7647]
IC50 USP5 (USP5): did not inhibit | IC50 USP8 (USP8): did not inhibit | IC50 (caspase-6): 21 µM | IC50 (USP46/UAF1): 12 ± 1 µM | IC50 (USP2): > 114 µM | IC50 for USP2, fold higher than that for USP1/UAF1 (USP2; [1]): more than 23 fold

O=c1[nH]c2ccccc2n1C1CCN(CCCC(c2ccc(F)cc2)c2ccc(F)cc2)CC1 [Pimozide, pimozide]
IC50 USP5 (USP5): No inhibition | IC50 USP8 (USP8): No inhibition | IC50 (caspase-6): > 250 µM | IC50 USP46/UAF1 (USP46/UAF1): did not inhibit | IC50 USP2 (USP2; [1]): No inhibition

OCCN1CCN(CCC=C2c3ccccc3Sc3ccc(C(F)(F)F)cc32)CC1 [Flupenthixol, flupenthixol]
IC50 USP5 (USP5): no inhibition | IC50 (USP8): > 114 µM | IC50 (caspase-6): > 250 µM | IC50 USP46/UAF1 (USP46/UAF1): did not inhibit | IC50 USP2 (USP2; [1]): no inhibition
